The record followed here is patent US20230027854A1, “ISOXAZOLE DERIVATIVES TARGETING TACC3 AS ANTICANCER AGENTS” (A2A Pharmaceuticals, inc., priority 2019, published 2023).

Experiment [1] has as its system JIMT-1 cells. Description: JIMT-1 cell growth inhibition / cell viability (SRB assay). The experiment is classed as cell-based. The conditions noted are these: Homo sapiens; JIMT-1 cells; read-out: IC50. Here is the method:
The ability of the compounds of the present disclosure to treat TACC3-mediated cancers, or associated symptoms or complications thereof, was determined using the following procedures. The compounds of the present disclosure were tested for their activity against cell death induction using a JIMT-1 cell line, which was a cell line having high level of TACC3. The concentration of each compound that was required for half-maximal inhibition of cell proliferation was calculated by a GraphPad Prism (GraphPad Software).
(The SRB assay estimates cell density from bound dye.)

The subject of experiment [2] is JIMT-1 cells. Description: Western blot of mitotic arrest, DNA damage and apoptosis markers. The conditions noted are these: 24 hours, dose response. The experiment is classed as cell-based, human. Here is the method:
JIMT-1, MDA-MB-436, MDA-MB-157 and BT-474 T-DM1R cell lines were tested with respect to their response to these three drugs. […] Although higher KHS101 doses was included, which were used by others (Campo & Breuer, 2018), an induction of these markers was only observed at very high doses.

A value given as a limit tells only on which side of the number the result lay.

As for `COc1ccc(-c2cc(Nc3ccnc(N4CCSCC4)n3)on2)cc1` [Compound 40, 3-(4-methoxyphenyl)-N-(2-thiomorpholinopyrimidin-4-yl)isoxazol-5-amine], the IC50 – broadly, the concentration that inhibits the measured activity by half – in the experiment with JIMT-1 cells [1] was 113 nM.

Regarding `COc1ccc(-c2cc(Nc3ccnc(N4CCS(=O)(=O)CC4)n3)on2)cc1` [Compound 41, 4-(4-((3-(4-methoxyphenyl)isoxazol-5-yl)amino)pyrimidin-2-yl)thiomorpholine 1,1-dioxide], the IC50 in the experiment with JIMT-1 cells [1] is greater than 10000 nM.

In the case of `COc1ccc(-c2cc(Nc3ccnc(N4CCCCC4)n3)on2)cc1` [Compound 42, 3-(4-methoxyphenyl)-N-(2-(piperidin-1-yl)pyrimidin-4-yl)isoxazol-5-amine], the IC50 with JIMT-1 cells [1] turned out to be 116 nM.

`COc1ccc(-c2cc(Nc3ccnc(N4CCC(C)CC4)n3)on2)cc1` [Compound 43, 3-(4-methoxyphenyl)-N-(2-(4-methylpiperidin-1-yl)pyrimidin-4-yl)isoxazol-5-amine]: the IC50 in the experiment with JIMT-1 cells [1] came out at 204 nM.

`COc1ccc(-c2cc(Nc3ccnc(N4CCC(C(F)(F)F)CC4)n3)on2)cc1` [Compound 44, 3-(4-methoxyphenyl)-N-(2-(4-(trifluoromethyl)piperidin-1-yl)pyrimidin-4-yl)isoxazol-5-amine]: the IC50 with JIMT-1 cells [1] is 56 nM.

`COc1ccc(-c2cc(Nc3ccnc(N4CCCC4)n3)on2)cc1` [Compound 45, 3-(4-methoxyphenyl)-N-(2-(pyrrolidin-1-yl)pyrimidin-4-yl)isoxazol-5-amine]: the IC50 with JIMT-1 cells [1] came to 105 nM.

Take `COc1ccc(-c2cc(Nc3ccnc(N4CCC(CCO)CC4)n3)on2)cc1` [Compound 46, 2-(1-(4-((3-(4-methoxyphenyl)isoxazol-5-yl)amino)pyrimidin-2-yl)piperidin-4-yl)ethan-1-ol]: the IC50 in the experiment with JIMT-1 cells [1] came out at 3970 nM.

For the compound `COc1ccc(-c2cc(Nc3ccnc(N4CCN(CCO)CC4)n3)on2)cc1` [Compound 47, 2-(4-(4-((3-(4-methoxyphenyl)isoxazol-5-yl)amino)pyrimidin-2-yl)piperazin-1-yl)ethan-1-ol], the IC50 with JIMT-1 cells [1] is greater than 10000 nM.

As for `COc1ccc(-c2cc(Nc3ccnc(N4CCN(C)CC4)n3)on2)cc1` [Compound 48, 3-(4-methoxyphenyl)-N-(2-(4-methylpiperazin-1-yl)pyrimidin-4-yl)isoxazol-5-amine], in the experiment with JIMT-1 cells [1], the IC50 is 1560 nM.

On to `COc1ccc(-c2cc(Nc3ccnc(N4CCNCC4)n3)on2)cc1` [Compound 49, 3-(4-methoxyphenyl)-N-(2-(piperazin-1-yl)pyrimidin-4-yl)isoxazol-5-amine], for which, in the experiment on JIMT-1 cells [1], the IC50 is greater than 10000 nM.

In the case of `CCOC(=O)C1CCN(c2nccc(Nc3cc(-c4ccc(OC)cc4)no3)n2)CC1` [Compound 50, Ethyl 1-(4-((3-(4-methoxyphenyl)isoxazol-5-yl)amino)pyrimidin-2-yl)piperidine-4-carboxylate], the IC50 with JIMT-1 cells [1] is greater than 10000 nM.

For `COc1ccc(-c2cc(Nc3ccnc(N4CCC(C(=O)O)CC4)n3)on2)cc1` [Compound 51, 1-(4-((3-(4-methoxyphenyl)isoxazol-5-yl)amino)pyrimidin-2-yl)piperidine-4-carboxylic acid], the IC50 in the experiment with JIMT-1 cells [1] is greater than 10000 nM.

For the compound `COc1ccc(-c2cc(Nc3nc(N4CCC(F)CC4)ncc3Cl)on2)cc1` [Compound 59, N-(5-chloro-2-(4-fluoropiperidin-1-yl)pyrimidin-4-yl)-3-(4-methoxyphenyl)isoxazol-5-amine], the IC50 in the experiment with JIMT-1 cells [1] was found to be 800 nM.

`COc1ccc(-c2cc(Nc3nc(N4CCC(F)CC4)ncc3F)on2)cc1` [Compound 60, N-(5-fluoro-2-(4-fluoropiperidin-1-yl)pyrimidin-4-yl)-3-(4-methoxyphenyl)isoxazol-5-amine]: the IC50 in the experiment on JIMT-1 cells [1] was 540 nM.

Take `COc1ccc(-c2cc(Nc3cc(C)nc(N4CCC(F)CC4)n3)on2)cc1` [Compound 61, N-(2-(4-fluoropiperidin-1-yl)-6-methylpyrimidin-4-yl)-3-(4-methoxyphenyl)isoxazol-5-amine]: the IC50 with JIMT-1 cells [1] was found to be 1000 nM.

Consider `COc1ccc(-c2cc(N(C)c3ccnc(N4CCOCC4)n3)on2)cc1` [Compound 63, 3-(4-methoxyphenyl)-N-methyl-N-(2-morpholinopyrimidin-4-yl)isoxazol-5-amine], for which, in the experiment with JIMT-1 cells [1], the IC50 stood at 160 nM.

Consider `CN(C)c1ccc(-c2cc(Nc3ccnc(N4CCC(F)CC4)n3)on2)cc1` [Compound 64, 3-(4-(dimethylamino)phenyl)-N-(2-(4-fluoropiperidin-1-yl)pyrimidin-4-yl)isoxazol-5-amine], for which the IC50 with JIMT-1 cells [1] turned out to be 157 nM.

With `COc1ccc(-c2cc(Nc3ccnc(N4CCC(F)CC4)n3)on2)cc1F` [Compound 65, 3-(3-fluoro-4-methoxyphenyl)-N-(2-(4-fluoropiperidin-1-yl)pyrimidin-4-yl)isoxazol-5-amine], the IC50 with JIMT-1 cells [1] came to 145 nM.

As to `COc1ccc(-c2cc(Nc3ccnc(N4C5CCC4COC5)n3)on2)cc1F` [Compound 66, N-(2-(3-oxa-8-azabicyclo[3.2.1]octan-8-yl)pyrimidin-4-yl)-3-(3-fluoro-4-methoxyphenyl)isoxazol-5-amine], in the experiment on JIMT-1 cells [1], the IC50 was determined as 53 nM.

For the compound `COc1ccc(-c2cc(Nc3ccnc(N4CCCC4)n3)on2)cc1F` [Compound 67, 3-(3-fluoro-4-methoxyphenyl)-N-(2-(pyrrolidin-1-yl)pyrimidin-4-yl)isoxazol-5-amine], the IC50 in the experiment with JIMT-1 cells [1] turned out to be 49 nM.

With `CC(C)CNc1ccnc(NCc2csc(-c3ccccc3)n2)n1` [KHS101, reference compound], the “induction of mitotic arrest, DNA damage and apoptosis markers” value with JIMT-1 cells [2] was “considerably higher doses”.
